Patent US8680133B2, “Alkyl indole-3-carbinol-derived antitumor agents” (The Ohio State University Research Foundation, priority 2009, dated 2014)

Tests used:
NCI-H460 = test: NCI60 screening, Non-Small Cell Lung Cancer, NCI-H460; assay type: cell-based, human
PC-3 xenograft tumor [1] = test: PC-3 xenograft tumor growth in nude mice, 450 ppm in the diet; assay type: in vivo; details: 450 ppm in AIN-76A rodent diet, vs control diet, P<0.05
Experimental: FIG. 3 provides a graph showing the in vivo efficacy of dietary OSU-A9M at 450 ppm in a rodent diet in suppressing PC-3 xenograft tumor growth in nude mice.
Given the increased potency of OSU-A9M compared to the other lead derivatives, an experimental diet was formulated. An AIN-76A rodent diet (American Institute of Nutrition; including primarily casein, sucrose, and corn starch) containing 450 ppm OSU-A9M was made to deliver approximately 50 mg/kg of drug per day to each mouse estimated by food consumption and body weight measurements.

SF-539 = test: NCI60 screening, CNS Cancer, SF-539; assay type: cell-based, human
HOP-92 = test: NCI60 screening, Non-Small Cell Lung Cancer, HOP-92; assay type: cell-based, human
U251 = test: NCI60 screening, CNS Cancer, U251; assay type: cell-based, human
NCI-H522 = test: NCI60 screening, Non-Small Cell Lung Cancer, NCI-H522; assay type: cell-based, human
[2] = Hematology, serum chemistry, liver weight and food consumption of mice fed the OSU-A9M diet; assay type: in vivo
Source text: Further supporting a lack of toxicity with the experimental diet is a preservation of body weight (and liver weight) of mice sacrificed at the conclusion of the 6-week treatment period. 1.3±0.1 g (3.9±0.5%) in drug-treated mice vs. 1.5±0.3 g (4.3±0.7%) in controls; liver percent body weight in parentheses following absolute weight, means±SD, n=7, P=0.1 and 0.5 for absolute and relative values. There was no significant difference in the amount of control or experimental diet consumed by the mice [2.4±0.3 g in drug-treated mice vs 2.5±0.1 g in controls (P=0.5)]. Throughout the treatment period, the drug-treated mice consumed 34.1±4.6 mg OSU-A9M per kg body weight per day, calculated as g diet consumed per day/g body weight×450 (overall mean±SD of weekly means).

RPMl-8226 = test: NCI60 screening, Leukemia, RPMl-8226; assay type: cell-based, human
SK-MEL-5 = test: NCI60 screening, Melanoma, SK-MEL-5; assay type: cell-based, human
UACC-257 = test: NCI60 screening, Melanoma, UACC-257; assay type: cell-based, human
MDA-MB-468 = test: NCI60 screening, Breast Cancer, MDA-MB-468; assay type: cell-based, human
A498 = test: NCI60 screening, Renal Cancer, A498; assay type: cell-based, human
PC-3 xenograft tumor [3] = test: PC-3 xenograft tumor growth in nude mice, oral gavage; assay type: in vivo; details: after 7 weeks, P<0.05
Experimental: FIG. 2 provides three graphs (A-C) showing the in vivo effects of OSU-A9M (C) versus OSU-A9 (A) and OSU-A9 F (B), each at 25 and 50 mg/kg per day by oral gavage, on suppressing PC-3 xenograft tumor growth in nude mice (n=6).
The efficacy studies were therefore repeated with OSU-A9M and OSU-A9F, following 42 days and 49 days treatment, respectively, versus OSU-A9 with 49-day treatment.
In all three treatments, the body weights of drug-treated mice were not affected. No signs of overt toxicity were observed.

[4] = Homo sapiens, read-out: LC50 (the source's name)
[5] = 450 ppm in diet, 6-week treatment, mean±SD, n=7
[6] = 450 ppm in diet, 18 to 24 weeks of age, mean±SD, n=5

SMILES: Cc1ccc2c(c1)c(CO)cn2S(=O)(=O)c1ccc(Cl)c([N+](=O)[O-])c1 [OSU-A9M, [1-(4-chloro-3-nitro-benzenesulfonyl)-5-methyl-1H-indol-3-yl]-methanol]
- TGI (NCI-H460): 3.36E−6
- GI50 (NCI-H460; Homo sapiens): 1830 nM
- LC50 (concentration killing 50% of cells) (NCI-H460; Homo sapiens): 6180 nM
- Percent Growth (NCI-H460; Log10 Concentration −4.0): −89%
- Percent Growth (NCI-H460; Log10 Concentration −5.0): −89%
- Percent Growth (NCI-H460; Log10 Concentration −6.0): 100%
- Percent Growth (NCI-H460; Log10 Concentration −7.0): 99%
- Percent Growth (NCI-H460; Log10 Concentration −8.0): 96%
- Suppression of the growth of PC-3 xenograft tumors (PC-3 xenograft tumor [1]): 59.6%
- TGI (SF-539): 2.94E−6
- GI50 (SF-539; Homo sapiens): 1600 nM
- CC50 (SF-539; [4]): 5420 nM
- Percent Growth (SF-539; Log10 Concentration −4.0): −100%
- Percent Growth (SF-539; Log10 Concentration −5.0): −100%
- Percent Growth (SF-539; Log10 Concentration −6.0): 88%
- Percent Growth (SF-539; Log10 Concentration −7.0): 94%
- Percent Growth (SF-539; Log10 Concentration −8.0): 93%
- TGI (HOP-92): 2.67E−6
- GI50 (HOP-92; Homo sapiens): 1310 nM
- CC50 (HOP-92; [4]): 5430 nM
- Percent Growth (HOP-92; Log10 Concentration −4.0): −97%
- Percent Growth (HOP-92; Log10 Concentration −5.0): −93%
- Percent Growth (HOP-92; Log10 Concentration −6.0): 69%
- Percent Growth (HOP-92; Log10 Concentration −7.0): 76%
- Percent Growth (HOP-92; Log10 Concentration −8.0): 92%
- TGI (U251): 2.91E−6
- GI50 (U251; Homo sapiens, U-251): 1570 nM
- CC50 (U251; Homo sapiens, U-251, read-out: LC50 (the source's name)): 5400 nM
- Percent Growth (U251; Log10 Concentration −4.0): −100%
- Percent Growth (U251; Log10 Concentration −5.0): −100%
- Percent Growth (U251; Log10 Concentration −6.0): 87%
- Percent Growth (U251; Log10 Concentration −7.0): 87%
- Percent Growth (U251; Log10 Concentration −8.0): 90%
- TGI (NCI-H522): 3.54E−7
- GI50 (NCI-H522; Homo sapiens): 145 nM
- CC50 (NCI-H522; [4]): 861 nM
- Percent Growth (NCI-H522; Log10 Concentration −4.0): −96%
- Percent Growth (NCI-H522; Log10 Concentration −5.0): −96%
- Percent Growth (NCI-H522; Log10 Concentration −6.0): −58%
- Percent Growth (NCI-H522; Log10 Concentration −7.0): 71%
- Percent Growth (NCI-H522; Log10 Concentration −8.0): 77%
- Amount of diet consumed ([2]; 450 ppm experimental diet): 2.4 ± 0.3 g
- Liver percent body weight [2, 5]: 3.9±0.5%
- Liver weight (absolute) [2, 5]: 1.3 ± 0.1 g
- ALP [2, 6]: 70.0 ± 14.6 iu/L
- ALT [2, 6]: 25.8 ± 8.0 iu/L
- AST [2, 6]: 69.6 ± 27.2 iu/L
- Albumin [2, 6]: 3.6 ± 0.2 g/dL
- BUN [2, 6]: 23.6 ± 2.9 mg/dL
- CK [2, 6]: 222.2 ± 144.5 iu/L
- Calcium [2, 6]: 10.7 ± 0.2 mg/dL
- Cholesterol [2, 6]: 193.4 ± 28.1 mg/dL
- Creatinine [2, 6]: 0.1 ± 0.0 mg/dL
- Globulin [2, 6]: 2.2 ± 0.1 g/dL
- Glucose [2, 6]: 301.8 ± 53.6 mg/dL
- Lymphocytes [2, 6]: 9.8 ± 3.1 ×10^3/μl
- Nucleated cells [2, 6]: 11.4 ± 3.7 ×10^3/μl
- PCV [2, 6]: 44.4 ± 1.1%
- Phosphorus [2, 6]: 6.5 ± 0.5 mg/dL
- Platelets [2, 6]: 327.2 ± 310.0 ×10^3/μl
- Potassium [2, 6]: 6.9 ± 0.4 mEq/L
- RBC [2, 6]: 10.3 ± 0.3 ×10^6/μl
- Segmented neutrophils [2, 6]: 1.3 ± 0.5 ×10^3/μl
- Total Bilirubin [2, 6]: 0.2 ± 0.0 mg/dL
- Total Protein [2, 6]: 5.8 ± 0.3 g/dL
- Complete cell blood counts and serum chemistry profiles ([2]; 450 ppm in diet, in words): none of the measured parameters are affected by drug treatment
- TGI (RPMl-8226): 3.80E−6
- GI50 (RPMl-8226; Homo sapiens): 1580 nM
- CC50 (RPMl-8226; [4]): 9140 nM
- Percent Growth (RPMl-8226; Log10 Concentration −4.0): −68%
- Percent Growth (RPMl-8226; Log10 Concentration −5.0): −55%
- Percent Growth (RPMl-8226; Log10 Concentration −6.0): 76%
- Percent Growth (RPMl-8226; Log10 Concentration −7.0): 84%
- Percent Growth (RPMl-8226; Log10 Concentration −8.0): 93%
- TGI (SK-MEL-5): 2.83E−6
- GI50 (SK-MEL-5; Homo sapiens): 1500 nM
- CC50 (SK-MEL-5; [4]): 5320 nM
- Percent Growth (SK-MEL-5; Log10 Concentration −4.0): −100%
- Percent Growth (SK-MEL-5; Log10 Concentration −5.0): −100%
- Percent Growth (SK-MEL-5; Log10 Concentration −6.0): 82%
- Percent Growth (SK-MEL-5; Log10 Concentration −7.0): 92%
- Percent Growth (SK-MEL-5; Log10 Concentration −8.0): 96%
- TGI (UACC-257): 3.31E−6
- GI50 (UACC-257; Homo sapiens): 1720 nM
- CC50 (UACC-257; [4]): 6400 nM
- Percent Growth (UACC-257; Log10 Concentration −4.0): −96%
- Percent Growth (UACC-257; Log10 Concentration −5.0): −84%
- Percent Growth (UACC-257; Log10 Concentration −6.0): 91%
- Percent Growth (UACC-257; Log10 Concentration −7.0): 94%
- Percent Growth (UACC-257; Log10 Concentration −8.0): 96%
- TGI (MDA-MB-468): 2.18E−6
- GI50 (MDA-MB-468; Homo sapiens): 979 nM
- CC50 (MDA-MB-468; [4]): 4780 nM
- Percent Growth (MDA-MB-468; Log10 Concentration −4.0): −95%
- Percent Growth (MDA-MB-468; Log10 Concentration −5.0): −97%
- Percent Growth (MDA-MB-468; Log10 Concentration −6.0): 50%
- Percent Growth (MDA-MB-468; Log10 Concentration −7.0): 86%
- Percent Growth (MDA-MB-468; Log10 Concentration −8.0): 90%
- TGI (A498): 2.79E−6
- GI50 (A498; Homo sapiens): 1330 nM
- CC50 (A498; [4]): 5870 nM
- Percent Growth (A498; Log10 Concentration −4.0): −100%
- Percent Growth (A498; Log10 Concentration −5.0): −86%
- Percent Growth (A498; Log10 Concentration −6.0): 69%
- Percent Growth (A498; Log10 Concentration −7.0): 62%
- Percent Growth (A498; Log10 Concentration −8.0): 75%
- Suppression of the volume of PC-3 tumor growth (PC-3 xenograft tumor [3]; 25 mg/kg per day by gavage): 44.0%
- Suppression of the volume of PC-3 tumor growth (PC-3 xenograft tumor [3]; 50 mg/kg per day by gavage): 67.6%
